One may read the EC50 as the midpoint of the concentration-response curve.

The subject of this test is HIV-1 single-round infectious reporter virus. The test can be described thus: Single-round infectious HIV-1 luciferase reporter virus infection of HeLa CD4 cells (antiviral EC50). The settings on record: Human immunodeficiency virus 1, HeLa, 72 h, read-out: EC50 Group from Table 1. The class given is cell-based. Put shortly: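 HeLa CD4 cells infected with env-pseudotyped, luciferase-reporter single-round HIV-1 (MOI ~0.01) in presence of compound (final ≤10 μM), harvested 72 h at 37 °C. Luciferase luminescence expressed as percent inhibition versus no-compound control; EC50 from 10-concentration four-parameter logistic fit.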
Background: A reporter such as luciferase makes a cellular process visible.
Take `COc1cnc(-n2cncn2)c2[nH]cc(C(=O)C(=O)N3CCC(=C(c4ccccc4)c4nnc(C)o4)CC3)c12` [Example 79, 1-[4-(1-Phenyl-1-(5-methyl-1,3,4-oxadiazol-2-yl)-methylene)-piperidin-1-yl]-2-[4-methoxy-7-(1,2,4-triazol-1-yl)-6-azaindol-3-yl]-ethane-1,2-dione]: the EC50 was under 1 µM.

On to `O=C(C(=O)N1CCC(=C(c2ccccc2)c2ccccc2)CC1)c1c[nH]c2ccccc12` [Example 4], for which the EC50 fell in the range of 1 to 5 µM.

Turning to `COc1cnc(-n2cc(C)nn2)c2[nH]cc(C(=O)C(=O)N3CCC(=C(c4ccccc4)c4nnc(C)o4)CC3)c12` [Example 138, 1-[4-(1-Phenyl-1-(5-methyl-1,3,4-oxadiazol-2-yl)-methylene)-piperidin-1-yl]-2-(4-methoxy-7-(4-methyl-1,2,3-triazol-1-yl)-6-azaindol-3-yl)-ethane-1,2-dione], the EC50 was under 1 µM.

`COc1cnc(-n2cnc(C)n2)c2[nH]cc(C(=O)C(=O)N3CCC(=C(c4ccccc4)c4nnc(O)o4)CC3)c12` [Example 83, 1-[4-(1-Phenyl-1-(5-hydroxy-1,3,4-oxadiazol-2-yl)-methylene)-piperidin-1-yl]-2-[4-methoxy-7-(3-methyl-1,2,4-triazol-1-yl)-6-azaindol-3-yl]-ethane-1,2-dione]: the EC50 was under 1 µM.

As to `COc1cnc(-c2cnccn2)c2[nH]cc(C(=O)C(=O)N3CCC(=C(c4ccccc4)c4csc(C)n4)CC3)c12` [Example 91], the EC50 was under 1 µM.

For the compound `COc1cnc(-n2cncn2)c2[nH]cc(C(=O)C(=O)N3CCC(=C(Br)c4ccccc4)CC3)c12` [Example 88], the EC50 is under 1 µM.

Turning to `COc1cnc(-n2ccnn2)c2[nH]cc(C(=O)C(=O)N3CCC(=C(c4ccccc4)c4nnc(O)o4)CC3)c12` [Example 77, 1-[4-(1-Phenyl-1-(5-hydroxy-1,3,4-oxadiazol-2-yl)-methylene)-piperidin-1-yl]-2-[4-methoxy-7-(1,2,3-triazol-1-yl)-6-azaindol-3-yl]-ethane-1,2-dione], the EC50 was under 1 µM.

`CCOC(=O)c1cncc(C(=C2CCN(C(=O)C(=O)c3c[nH]c4c(-n5cnc(C)n5)ncc(OC)c34)CC2)c2ccccc2)c1` [Example 121]: the EC50 is under 1 µM.

Turning to `COc1cnc(-c2cnccn2)c2[nH]cc(C(=O)C(=O)N3CCC(=C(Br)c4ccccc4)CC3)c12` [Example 89], the EC50 is under 1 µM.

Regarding `COc1ncc(OC)c2c(C(=O)C(=O)N3CCC(=C(c4ccccc4)c4ccco4)CC3)c[nH]c12` [Example 54], the EC50 is under 1 µM.

As to `COc1ncc(OC)c2c(C(=O)C(=O)N3CCC(=C(c4ccccc4)c4nnc(C(F)(F)F)o4)CC3)c[nH]c12` [Example 53, 1-[4-(1-Phenyl-1-(5-trifluoromethyl-1,3,4-oxadiazol-2-yl)-methylene)-piperidin-1-yl]-2-(4,7-dimethoxy-6-azaindol-3-yl)-ethane-1,2-dione], the concentration giving a half-maximal response (EC50) was under 1 µM.

Regarding `COc1cnc(-c2cnccn2)c2[nH]cc(C(=O)C(=O)N3CCC(=C(c4ccccc4)c4cnccn4)CC3)c12` [Example 70, 1-[4-(1-Phenyl-1-(pyrazinyl)-methylene)-piperidin-1-yl]-2-(4-methoxy-7-pyrazinyl-6-azaindol-3-yl)-ethane-1,2-dione], the EC50 is under 1 µM.

With `C=C(C)c1nnc(C(=C2CCN(C(=O)C(=O)c3c[nH]c4c(-n5cnc(C)n5)ncc(OC)c34)CC2)c2ccccc2)o1` [Example 130, 1-[4-(1-Phenyl-1-(5-isopropenyl-1,3,4-oxadiazol-2-yl)-methylene)-piperidin-1-yl]-2-[4-methoxy-7-(3-methyl-1,2,4-triazol-1-yl)-6-azaindol-3-yl]-ethane-1,2-dione], the concentration for a half-maximal effect (EC50) was under 1 µM.

In the case of `COc1cnc(-n2ccc(C)n2)c2[nH]cc(C(=O)C(=O)N3CCC(=C(c4ccccc4)c4nnc(C)o4)CC3)c12` [Example 99], the EC50 is under 1 µM.

As for `COc1cnc(-n2cnc(C)n2)c2[nH]cc(C(=O)C(=O)N3CCC(=C(c4ccccc4)c4nnc(C)o4)CC3)c12` [Example 80, 1-[4-(1-Phenyl-1-(5-methyl-1,3,4-oxadiazol-2-yl)-methylene)-piperidin-1-yl]-2-[4-methoxy-7-(3-methyl-1,2,4-triazol-1-yl)-6-azaindol-3-yl]-ethane-1,2-dione], the EC50 is under 1 µM.

As for `COc1ncc(OC)c2c(C(=O)C(=O)N3CCC(=C(c4ccccc4)c4nnc(C)o4)CC3)c[nH]c12` [Example 52, 1-[4-(1-Phenyl-1-(5-methyl-1,3,4-oxadiazol-2-yl)-methylene)-piperidin-1-yl]-2-(4,7-dimethoxy-6-azaindol-3-yl)-ethane-1,2-dione], the EC50 was under 1 µM.

On to `COc1cnc(-n2ccc(C)n2)c2[nH]cc(C(=O)C(=O)N3CCC(=C(c4ccccc4)c4ccc(F)cc4)CC3)c12` [Example 97], for which the EC50 was under 1 µM.

Regarding `COc1cnc(-n2cnc(C)n2)c2[nH]cc(C(=O)C(=O)N3CCC(=C(c4ccccc4)c4nnc(C(C)(C)C)o4)CC3)c12` [Example 134, 1-[4-(1-Phenyl-1-(5-tert-butyl-1,3,4-oxadiazol-2-yl)-methylene)-piperidin-1-yl]-2-[4-methoxy-7-(3-methyl-1,2,4-triazol-1-yl)-6-azaindol-3-yl]-ethane-1,2-dione], the EC50 was under 1 µM.

As to `COc1ccccc1C(=C1CCN(C(=O)C(=O)c2c[nH]c3c(OC)ncc(OC)c23)CC1)c1ccccc1` [Example 65], the EC50 is under 1 µM.

Consider `COc1ncc(OC)c2c(C(=O)C(=O)N3CCC(=C(C#CC(=O)O)c4ccccc4)CC3)c[nH]c12` [Example 119, 1-[4-(1-Phenyl-1-(2-carboxyethyn-1-yl)-methylene)-piperidin-1-yl]-2-(4,7-dimethoxy-6-azaindol-3-yl)-ethane-1,2-dione], for which the EC50 is under 1 µM.

In the case of `COc1cnc(-n2cnc(C)n2)c2[nH]cc(C(=O)C(=O)N3CCC(=C(c4ccccc4)c4nnc(C(C)C)o4)CC3)c12` [Example 81, 1-[4-(1-Phenyl-1-(5-isopropyl-1,3,4-oxadiazol-2-yl)-methylene)-piperidin-1-yl]-2-[4-methoxy-7-(3-methyl-1,2,4-triazol-1-yl)-6-azaindol-3-yl]-ethane-1,2-dione], the EC50 is under 1 µM.

With `COc1cnc(-n2cnc(C)n2)c2[nH]cc(C(=O)C(=O)N3CCC(=C(c4ccccc4)c4nnc(-c5ccccc5)o4)CC3)c12` [Example 135, 1-[4-(1-Phenyl-1-(5-phenyl-1,3,4-oxadiazol-2-yl)-methylene)-piperidin-1-yl]-2-[4-methoxy-7-(3-methyl-1,2,4-triazol-1-yl)-6-azaindol-3-yl]-ethane-1,2-dione], the EC50 is over 0.5 µM.

Turning to `COc1cnc(-n2ccnn2)c2[nH]cc(C(=O)C(=O)N3CCC(=C(c4ccccc4)c4cnn(Cc5ccccc5)c4)CC3)c12` [Example 144, 1-[4-(1-Phenyl-1-(1-benzylpyrazol-4-yl)-methylene)-piperidin-1-yl]-2-(4-methoxy-7-(1,2,3-triazol-1-yl)-6-azaindol-3-yl)-ethane-1,2-dione], the EC50 is under 1 µM.

With `COc1cnc(-n2ccnn2)c2[nH]cc(C(=O)C(=O)N3CCC(=C(c4ccccc4)c4nnco4)CC3)c12` [Example 132, 1-[4-(1-Phenyl-1-(1,3,4-oxadiazol-2-yl)-methylene)-piperidin-1-yl]-2-[4-methoxy-7-(1,2,3-triazol-1-yl)-6-azaindol-3-yl]-ethane-1,2-dione], the EC50 was under 1 µM.

For the compound `N#CC(=C1CCN(C(=O)C(=O)c2c[nH]c3c(-n4ccc(N)n4)ncc(F)c23)CC1)c1ccccc1` [Example 111, (1-{2-[7-(3-Amino-pyrazol-1-yl)-4-fluoro-1H-pyrrolo[2,3-c]pyridin-3-yl]-2-oxo-acetyl}-piperidin-4-ylidene)-phenyl-acetonitrile], the EC50 is under 1 µM.

In the case of `N#CC(=C1CCN(C(=O)C(=O)c2c[nH]c3c(-c4nccs4)ccnc23)CC1)c1ccccc1` [Example 104, {1-[2-Oxo-2-(7-thiazol-2-yl-1H-pyrrolo[3,2-b]pyridin-3-yl)-acetyl]-piperidin-4-ylidene}-phenyl-acetonitrile], the EC50 was under 1 µM.

In the case of `COc1cnc(-c2cc(C)n[nH]2)c2[nH]cc(C(=O)C(=O)N3CCC(=C(c4ccccc4)c4nnc(C)o4)CC3)c12` [Example 140, 1-[4-(1-Phenyl-1-(5-methyl-1,3,4-oxadiazol-2-yl)-methylene)-piperidin-1-yl]-2-(4-methoxy-7-(5-methylpyrazole-3-yl)-6-azaindol-3-yl)-ethane-1,2-dione], the EC50 was under 1 µM.

Source of the values: patent publication US20080188481A1 (priority 2002, published 2008).
